The values that follow come from the NIST ThermoML archive (doi:10.1021/je2005402).

The conditions of the data set: Liquid, Ebulliometric method (Recirculating still).

± gives the expanded uncertainty stated by the source.

The term vapor or sublimation pressure denotes the pressure of vapour in equilibrium with the condensed phase.

Consider `COC(=O)OC` [dimethyl carbonate], for which the “vapor or sublimation pressure” value (363.25 K) stood at 101.32 ± 1.1 kPa. `CO` [methanol]: the “vapor or sublimation pressure” value (337.85 K) was found to be 101.32 ± 1.1 kPa.
